Experiments:
[1] = test system: PSMA+ PC3 PIP tumors; assay: Radiopharmaceutical therapy in PC3 PIP flank tumor growth delay model; assay type: in vivo, NOD/SCID mice; conditions: for Tumor disappear (number of mice): week 8 post-treatment; for Average final body weight: single i.v. dose 111 MBq (3 mCi)
Procedure: (§1) A pilot treatment study using NOD/SCID mice (n=10 per group) bearing PSMA+ PC3 PIP tumors with a single intravenous dose of 111 MBq (3 mCi) of agents ^177Lu-PSMA-617, ^177Lu-1, ^177Lu-3 and ^177Lu-5 and the control group (with saline treatment) were performed (Table 8). Volume of the all control group mice reached >5-fold of their initial tumor volume within 14 days. Mouse euthanized for treated group within 4 weeks of post-injection was mainly due to sudden body weight loss and not related to tumor growth. […] The difference among treatment groups was statistically significant (P=0.002) by the log-rank test compared to the untreated group. […] After 8-weeks, three mice from each treated group were used for detailed blood analysis and necropsy study. All animals underwent radiotherapy study had normal creatinine (0.3-0.4 mg/dL) and blood urea nitrogen levels. […] Additionally, a significant lowering of platelet for all three treated mice from ^177Lu-PSMA-617 compared control group and other treated groups.
Median survival for the ^177Lu-PSMA-617 was 133 days vs. 234 days for ^177Lu-1.
The remaining treated mice survived tumor-free for 10 months and were evaluated for toxicity.
(§2) Antitumor efficacy studies were performed in PC3 PIP flank tumor growth delay model to evaluate the therapeutic efficacy of a single dose intravenous injection of ^177Lu-L1, ^177Lu-L3, ^177Lu-L5 and ^177Lu-PSMA-617 vs. saline. This was a head-to-head comparison study and same batch of tumor-bearing mice and radioactivity. The study was commenced 14-18 days post-inoculation of the xenografts, when all the mice had tumor volume of about ˜60-85 mm^3 (Table 8). All the living mice were monitored for 8 weeks to monitor the growth delay. Mice body weight and tumor volume were monitored every 3 days throughout the experiment. Endpoint criteria defined by the institute ACUC was weight loss≥15%, a tumor volume>1800 mm^3, active ulceration of the tumor or abnormal behavior indicating pain or unease. After 8-weeks, three mice from each group were submitted for detail necropsy and blood analysis. Mice group treated with ^177Lu-1 and ^177Lu-PSMA-617 were continued to monitor until the endpoint. These definitions were also used for Kaplan-Meier analysis. The probability of reaching 5 times the initial tumor volume was characterized using Kaplan-Meier curves, and comparison was performed using the log-rank test. The formula used for calculation of tumor volume was V=width^2×length/2. Toxicity of the ^177Lu-treatment groups after 8-weeks and in healthy CD-1 (n=3) mice treated with 111 MBq was evaluated by pathologic examination at the Johns Hopkins Pathology Core facility with serum metabolic panel, blood counts, and full necropsy including detailed histopathology of kidneys, salivary glands and lacrimal glands.

[2] = test system: PSMA(−) PC3 flu cells; assay: Cell uptake in PSMA(−) PC3 flu cells; assay type: cell-based, human
[3] = Blood analysis and necropsy after radiotherapy; assay type: in vivo, NOD/SCID mice; conditions: one-year post-treatment in tumor-free mice, 111 MBq
[4] = test system: PSMA(+) PC3 PIP cells; assay: Cell uptake, cell surface binding and internalization in PSMA(+) PC3 PIP cells; assay type: cell-based, human; conditions: for Blockade PC3 PIP: ZJ43 10 μM; for total uptake within the PSMA(+) PC3 PIP cells: 1 h to 24 h
[5] = test system: PSMA(+) PC3 PIP and PSMA(−) PC3 flu tumor xenografts; assay: Biodistribution of 177Lu compounds (Example 5)
[6] = test system: PSMA+ PC3 PIP cells; assay: Clonogenic cell survival assay in PSMA+ PC3 PIP cells; assay type: cell-based, human
[7] = test system: PSMA(+) tumors and normal tissues; assay: Self-blocking (receptor blockade) biodistribution; assay type: in vivo, mouse; conditions: at 10-fold kidney blockade
From the text: Development of receptor blockade for normal organs. The blocking effect of 1 was quantified in normal tissues using ^177Lu-1. A drastic reduction of renal uptake was observed while maintaining high uptake in PSMA(+) tumors (FIG. 12). […] Blocking strategies. […] These daughters, once formed, are unlikely to associate with the chelate construct due to high atomic recoil-energy as a result of α-decay. Without wishing to be bound to any one particular theory, it is thought that acute salivary gland toxicity caused by ^225Ac-PSMA-617 is most likely due to PSMA-based internalization of the agent followed by daughter release in striated duct or acini. Both biodistribution data and α-camera imaging will be used to interpret the data. Different pharmacologic agents will be evaluated to avoid renal and salivary gland radio toxicity. […]

[8] = test system: PC3-ML-Luc-PSMA; assay: Treatment study in micrometastatic PC3-ML-Luc-PSMA model; assay type: in vivo, mouse; conditions: 37 MBq
From the text: (middle) Changes in bodyweight during the treatment study. (bottom) Kaplan-Meier survival curve for treatment study in micrometastatic PC3-ML-Luc-PSMA model, median survival for 51 days (untreated) vs 52 days for ^177Lu-PSMA-617 (37 MBq) and 56 days for 225Ac-1 (37 kBq) and 79 days for 225Ac-1 (74 kBq);

[9] = Blood analysis and necropsy after radiotherapy; assay type: in vivo, NOD/SCID mice
Procedure: as §1
Significant and concerning changes were identified in testes, and lacrimal grands primarily (FIG. 25) for all treated groups. […] Parotid glands, usually adjacent to exorbital lacrimal gland, are conspicuously spared and there were mild changes in the group treated ^177Lu-PSMA-617. […] T lymphoblastic lymphoma is accelerated by irradiation and some carcinogens, and is associated with interactions of endogenous retroviruses/retroelements in NOD/SCID mouse strains. […] The cells are large up to 25 μm, with very large nuclei (for a mouse) usually 2-3 nucleoli, and a high mitotic rate. Testis and lacrimal gland degenerative changes indicate that this animal did receive a treatment similar to other treated mice.
as §2

[10] = 111 MBq (3 mCi), after eight weeks, n=3

Compound | Median survival After 8 weeks post-treatment ([1]; 111 MBq) | Tumor disappear (number of mice) ([1]; 111 MBq) | Average final body weight [1] [gram] | Cell uptake PC3 flu ([2]; 1 h) | Cell uptake PC3 flu ([2]; 2 h) | Cell uptake PC3 flu ([2]; 4 h) | Cell uptake PC3 flu ([2]; 24 h) | Cell uptake PC3 PIP ([4]; 1 h) | PC3 PIP cell Int (internalization) ([4]; 1 h) | Blockade PC3 PIP ([4]; 1 h) | total uptake within the PSMA(+) PC3 PIP cells [4] | Cell uptake PC3 PIP ([4]; 2 h) | PC3 PIP, line without name (position of cell internalization) ([4]; 2 h) | Cell uptake PC3 PIP ([4]; 4 h) | PC3 PIP cell int (internalization) ([4]; 4 h) | Cell uptake PC3 PIP ([4]; 24 h) | PC3 PIP cell int (internalization) ([4]; 24 h) | further results
O=C([O-])CN1CCN(CC(=O)[O-])CCN(CC(=O)NCCCCC(=O)N(CCCC[C@H](NC(=O)N[C@@H](CCC(=O)O)C(=O)O)C(=O)O)Cc2ccc(Br)cc2)CCN(CC(=O)[O-])CC1.[177Lu+3] [^177Lu-L1] | Not reached | disappear 7 | 26.1 ± 1.4 | 0.2 ± 0.0 % incubated dose per 1 x 10^6 cells | 0.1 ± 0.0 % incubated dose per 1 x 10^6 cells | 0.1 ± 0.0 % incubated dose per 1 x 10^6 cells | 0.2 ± 0.1 % incubated dose per 1 x 10^6 cells | 32.1 ± 0.1 % incubated dose per 1 x 10^6 cells | 18.8 ± 0.8 % incubated dose per 1 x 10^6 cells | 0.2 ± 0.0 % incubated dose per 1 x 10^6 cells | ~30 % of the incubated dose | 36.7 ± 0.5 % incubated dose per 1 x 10^6 cells | 22.0 ± 0.6 % incubated dose per 1 x 10^6 cells | 39.1 ± 0.5 % incubated dose per 1 x 10^6 cells | 26.6 ± 1.2 % incubated dose per 1 x 10^6 cells | 46.2 ± 0.2 % incubated dose per 1 x 10^6 cells | 24.6 ± 0.2 % incubated dose per 1 x 10^6 cells | Mouse death (number of mice) ([1]; 111 MBq, up to week 8 post-treatment): Death 1; radiation nephropathy at necropsy [3]: did not reveal any radiation nephropathy
O=C([O-])CN1CCN(CC(=O)[O-])CCN(CC(=O)O)C(Cc2ccc(NC(=S)NCCCCC(=O)N(CCCC[C@H](NC(=O)N[C@@H](CCC(=O)O)C(=O)O)C(=O)O)Cc3ccc(Br)cc3)cc2)CN(CC(=O)[O-])CC1.[177Lu+3] (some centres unmarked) [^177Lu-L8] | – | – | – | – | – | – | – | – | – | – | – | – | – | – | – | – | – | mice with tumor growth with relative volume>5 after 8 weeks ([1]; 111 MBq, n=10): only two mice; tumor-free survival of remaining treated mice ([1]; 111 MBq, n=10): 10 months; unexpected death of mice (used for SPECT/CT imaging) ([1]; 111 MBq, n=10): three mice; PSMA(+) PC3 PIP tumor uptake ([5]; 2 h): 55.4±7.2 % ID/g; PSMA(+) PC3 PIP tumor uptake ([5]; 24 h post-injection): 40.6±7.0 % ID/g; PSMA(+) PC3 PIP tumor uptake ([5]; 48 h): 27.0±7.0 % ID/g; PSMA(+) PC3 PIP tumor uptake ([5]; fourth time point, time not given): 24.9±2.3 % ID/g; D0 (37% survival) ([6]; 48 h incubation): 0.3-0.6 μCi/mL; Cell surviving fraction ([6]; incubated for 2 h and 24 h): > 0.8; fold higher internalization compared to 177Lu-7 ([4]; all time-points up to 24 h): > 1.5 fold
O=C([O-])CN1CCN(CC(=O)[O-])CCN(C(CCC(=O)NCCCCC(=O)N(CCCC[C@H](NC(=O)N[C@@H](CCC(=O)O)C(=O)O)C(=O)O)Cc2ccc(Br)cc2)C(=O)O)CCN(CC(=O)[O-])CC1.[177Lu+3] (some centres unmarked) [^177Lu-L9] | – | – | – | – | – | – | – | – | – | – | – | – | – | – | – | – | – | Kidney uptake ([5]; 2 h): 149.7±32.0 % ID/g; Kidney uptake ([5]; 24 h (so in the source)): 5.9±2.7 % ID/g; fold renal clearance ([5]; within 24 h): ~30 fold; effect of self-blockade on tumor uptake [7]: significant tumor uptake blockade; cell uptake and internalization [4]: ~70%
O=C([O-])CN1CCN(CC(=O)[O-])CCN(CC(=O)NCC2CCC(C(=O)N[C@@H](Cc3ccc4ccccc4c3)C(=O)NCCCC[C@H](NC(=O)N[C@@H](CCC(=O)O)C(=O)O)C(=O)O)CC2)CCN(CC(=O)[O-])CC1.[177Lu+3] (some centres unmarked) [^177Lu-PSMA-617, reference compound] | Not reached | disappear 5 | 24.6 ± 3.6 | 0.1 ± 0.01 % incubated dose per 1 x 10^6 cells | 0.1 ± 0.0 % incubated dose per 1 x 10^6 cells | 0.1 ± 0.06 % incubated dose per 1 x 10^6 cells | 0.1 ± 0.01 % incubated dose per 1 x 10^6 cells | 42.2 ± 0.80 % incubated dose per 1 x 10^6 cells | 18.8 ± 1.2 % incubated dose per 1 x 10^6 cells | 0.1 ± 0.0 % incubated dose per 1 x 10^6 cells | ~40 % of the incubated dose | 44.6 ± 1. % incubated dose per 1 x 10^6 cells | 21.1 ± 0.9 % incubated dose per 1 x 10^6 cells | 47.6 ± 1.13 % incubated dose per 1 x 10^6 cells | 26.1 ± 1.0 % incubated dose per 1 x 10^6 cells | 54.2 ± 0.21 % incubated dose per 1 x 10^6 cells | 26.4 ± 0.8 % incubated dose per 1 x 10^6 cells | Tumors above stated relative tumor growth after week 8 post-treatment (Vt/V0) ([1]; 111 MBq): one tumor > 4; median survival ([1]; 111 MBq, followed to predefined end-point): 133 days; Kidney uptake ([5]; 3 h post-injection): 9.81±6.54 % ID/g; median survival [8]: 52 days; Albumin [9, 10]: 2.9 ± 0.2 g/dL; Blood urea nitrogen [9, 10]: 23.3 ± 2.5 mg/dL; Hematocrit [9, 10]: 42.9 ± 4.5%; Hemoglobin [9, 10]: 12.8 ± 1.0 g/dL; Lymphocytes [9, 10]: 0.7 ± 0.1 K/μL; Mean Corpuscular Value(MCV) [9, 10]: 52.2 ± 1.6 fL; Neutrophils [9, 10]: 3.5 ± 3.8 K/μL; Platelets [9, 10]: 916.0 ± 141.6 K/μL; Red blood cells [9, 10]: 8.2 ± 0.7 M/μL; Total protein [9, 10]: 5.5 ± 0.5 g/dL; White blood cells [9, 10]: 5.05 ± 4.1 K/μL; H&E pathology of testis ([9]; 111 MBq, after 8 weeks): most significant changes in testis; neutrophil counts ([9]; 111 MBq, after 8 weeks): up to 3.5±3.8 K/mL

— patent publication US11478558B2, “Prostate-specific membrane antigen targeted high-affinity agents for endoradiotherapy of prostate cancer” (The Johns Hopkins University, priority 2017, dated 2022)
